Measurements: US8952024B2, “Herbicidal pyrimidone derivatives” (E I du Pont de Nemours and Company, priority 2009, dated 2015)

Experiments:
Test in all cases: Test B pre-/postemergence plant response
Type in all cases: in vivo
[1] = tested on: Italian ryegrass (Lolium multiflorum); conditions: Postemergence
Outline: (§1)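 Pre-em in loam/sand; post-em at 1–4 leaf (2–18 cm) in peat mix. Solvent + surfactant formulation. Greenhouse 13–15 d; visual % control vs untreated, 0–100.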

[2] = tested on: blackgrass (Alopecurus myosuroides); conditions: for Blackgrass plant response rating (0 to 100 scale): 62 g ai/ha, postemergence, 0 is no effect, 100 is complete control; for Plant response rating, Blackgrass: Postemergence
Outline: as §1

corn (Zea mays) = conditions: Postemergence
Outline: as §1

[3] = tested on: downy bromegrass (Bromus tectorum); conditions: for Bromegrass, Downy plant response rating (0 to 100 scale): 62 g ai/ha, postemergence, 0 is no effect, 100 is complete control; for Plant response rating, Bromegrass, Downy: Postemergence
Outline: as §1

[4] = tested on: goosegrass (Eleusine indica); conditions: Postemergence
Outline: as §1

[5] = tested on: johnsongrass (Sorghum halepense); conditions: Postemergence
Outline: as §1

kochia (Kochia scoparia) = conditions: Postemergence
Outline: as §1

[6] = tested on: lambsquarters (Chenopodium album); conditions: Postemergence
Outline: as §1

[7] = tested on: large crabgrass (Digitaria sanguinalis); conditions: Postemergence
Outline: as §1

[8] = tested on: pigweed (Amaranthus retroflexus); conditions: Postemergence
Outline: as §1

[9] = tested on: ragweed (common ragweed, Ambrosia elatior); conditions: Postemergence
Outline: as §1

soybean (Glycine max) = conditions: Postemergence
Outline: as §1

[10] = tested on: velvetleaf (Abutilon theophrasti); conditions: Postemergence
Outline: as §1

[11] = tested on: wheat (Triticum aestivum); conditions: Postemergence
Outline: as §1

wild oat (Avena fatua) = conditions: Postemergence
Outline: as §1

[12] = tested on: woolly cupgrass (Eriochloa villosa); conditions: Postemergence
Outline: as §1

[13] = tested on: yellow nutsedge (Cyperus esculentus); conditions: Postemergence
Outline: as §1

[14] = 31 g ai/ha, 0 to 100 scale (0 no effect, 100 complete control)
[15] = 125 g ai/ha, scale 0 to 100 (0 no effect, 100 complete control)
[16] = 250 g ai/ha, scale 0 to 100 (0 no effect, 100 complete control), 13 to 15 days

## O=C1CCCC(O)=C1C(=O)c1cnc(-c2ccsc2)n(C2CCOCC2)c1=O [Compound 186]
[1]; [14]
  Plant response rating, Ryegrass, Italian: 0
[1]; [15]
  Plant response rating, Ryegrass, Italian: 0
[1]; [16]
  Plant response rating, Ryegrass, Italian: 30
[2]; 13 to 15 days
  Blackgrass plant response rating (0 to 100 scale): 0
[2]; [14]
  Plant response rating, Blackgrass: 0
[2]; [15]
  Plant response rating, Blackgrass: 5
[2]; [16]
  Plant response rating, Blackgrass: 20
Corn (Zea mays); [14]
  Plant response rating, Corn: 10
Corn (Zea mays); [15]
  Plant response rating, Corn: 30
Corn (Zea mays); [16]
  Plant response rating, Corn: 65
[3]; 13 to 15 days
  Bromegrass, Downy plant response rating (0 to 100 scale): 25
[3]; [14]
  Plant response rating, Bromegrass, Downy: 5
[3]; [15]
  Plant response rating, Bromegrass, Downy: 30
[3]; [16]
  Plant response rating, Bromegrass, Downy: 50
[4]; [14]
  Plant response rating, Goosegrass: 85
[4]; [15]
  Plant response rating, Goosegrass: 98
[4]; [16]
  Plant response rating, Goosegrass: 100
[5]; [14]
  Plant response rating, Johnsongrass: 65
[5]; [15]
  Plant response rating, Johnsongrass: 75
[5]; [16]
  Plant response rating, Johnsongrass: 100
Kochia (Kochia scoparia); [14]
  Plant response rating, Kochia: 75
Kochia (Kochia scoparia); [15]
  Plant response rating, Kochia: 100
Kochia (Kochia scoparia); [16]
  Plant response rating, Kochia: 100
[6]; [14]
  Plant response rating, Lambsquarters: 98
[6]; [15]
  Plant response rating, Lambsquarters: 100
[6]; [16]
  Plant response rating, Lambsquarters: 100
[7]; [14]
  Plant response rating, Crabgrass, Large: 80
[7]; [15]
  Plant response rating, Crabgrass, Large: 85
[7]; [16]
  Plant response rating, Crabgrass, Large: 95
[8]; [14]
  Plant response rating, Pigweed: 85
[8]; [15]
  Plant response rating, Pigweed: 100
[8]; [16]
  Plant response rating, Pigweed: 100
[9]; [14]
  Plant response rating, Ragweed: 85
[9]; [15]
  Plant response rating, Ragweed: 100
[9]; [16]
  Plant response rating, Ragweed: 100
Soybean (Glycine max); [14]
  Plant response rating, Soybean: 85
Soybean (Glycine max); [15]
  Plant response rating, Soybean: 100
Soybean (Glycine max); [16]
  Plant response rating, Soybean: 100
[10]; [14]
  Plant response rating, Velvetleaf: 70
[10]; [15]
  Plant response rating, Velvetleaf: 100
[10]; [16]
  Plant response rating, Velvetleaf: 100
[11]; [14]
  Plant response rating, Wheat: 0
[11]; [15]
  Plant response rating, Wheat: 0
[11]; [16]
  Plant response rating, Wheat: 5
Wild oat (Avena fatua); [14]
  Plant response rating, Oat, Wild: 0
Wild oat (Avena fatua); [15]
  Plant response rating, Oat, Wild: 20
Wild oat (Avena fatua); [16]
  Plant response rating, Oat, Wild: 45
[12]; [14]
  Plant response rating, Cupgrass, Woolly: 70
[12]; [15]
  Plant response rating, Cupgrass, Woolly: 80
[12]; [16]
  Plant response rating, Cupgrass, Woolly: 85
[13]; [14]
  Plant response rating, Nutsedge, Yellow: 65
[13]; [15]
  Plant response rating, Nutsedge, Yellow: 75
[13]; [16]
  Plant response rating, Nutsedge, Yellow: 80

## O=C1CCCC(O)=C1C(=O)c1cnc(-c2ccccc2)n(C2CC[S+]([O-])CC2)c1=O (mixture of isomers) [Compound 169, 5-[(2-hydroxy-6-oxo-1-cyclohexen-1-yl)carbonyl]-2-phenyl-3-(trans/cis-tetrahydro-1-oxido-2H-thiopyran-4-yl)-4(3H)-pyrimidinone]
[1]; 16 g ai/ha, 0 to 100 scale
  Plant response rating, Ryegrass, Italian: 0
[1]; [14]
  Plant response rating, Ryegrass, Italian: 0
[1]; [15]
  Plant response rating, Ryegrass, Italian: 10
[2]; 16 g ai/ha, 0 to 100 scale
  Plant response rating, Blackgrass: 0
[2]; 13 to 15 days
  Blackgrass plant response rating (0 to 100 scale): 5
[2]; [14]
  Plant response rating, Blackgrass: 5
[2]; [15]
  Plant response rating, Blackgrass: 10
Corn (Zea mays); 16 g ai/ha, 0 to 100 scale
  Plant response rating, Corn: 20
Corn (Zea mays); [14]
  Plant response rating, Corn: 45
Corn (Zea mays); [15]
  Plant response rating, Corn: 55
[3]; 16 g ai/ha, 0 to 100 scale
  Plant response rating, Bromegrass, Downy: 0
[3]; 13 to 15 days
  Bromegrass, Downy plant response rating (0 to 100 scale): 40
[3]; [14]
  Plant response rating, Bromegrass, Downy: 10
[3]; [15]
  Plant response rating, Bromegrass, Downy: 90
[4]; 16 g ai/ha, 0 to 100 scale
  Plant response rating, Goosegrass: 80
[4]; [14]
  Plant response rating, Goosegrass: 95
[4]; [15]
  Plant response rating, Goosegrass: 100
[5]; 16 g ai/ha, 0 to 100 scale
  Plant response rating, Johnsongrass: 40
[5]; [14]
  Plant response rating, Johnsongrass: 60
[5]; [15]
  Plant response rating, Johnsongrass: 65
Kochia (Kochia scoparia); 16 g ai/ha, 0 to 100 scale
  Plant response rating, Kochia: 100
Kochia (Kochia scoparia); [14]
  Plant response rating, Kochia: 100
Kochia (Kochia scoparia); [15]
  Plant response rating, Kochia: 100
[6]; 16 g ai/ha, 0 to 100 scale
  Plant response rating, Lambsquarters: 95
[6]; [14]
  Plant response rating, Lambsquarters: 100
[6]; [15]
  Plant response rating, Lambsquarters: 100
[7]; 16 g ai/ha, 0 to 100 scale
  Plant response rating, Crabgrass, Large: 75
[7]; [14]
  Plant response rating, Crabgrass, Large: 85
[7]; [15]
  Plant response rating, Crabgrass, Large: 100
[8]; 16 g ai/ha, 0 to 100 scale
  Plant response rating, Pigweed: 90
[8]; [14]
  Plant response rating, Pigweed: 100
[8]; [15]
  Plant response rating, Pigweed: 100
[9]; 16 g ai/ha, 0 to 100 scale
  Plant response rating, Ragweed: 98
[9]; [14]
  Plant response rating, Ragweed: 100
[9]; [15]
  Plant response rating, Ragweed: 100
Soybean (Glycine max); 16 g ai/ha, 0 to 100 scale
  Plant response rating, Soybean: 55
Soybean (Glycine max); [14]
  Plant response rating, Soybean: 90
Soybean (Glycine max); [15]
  Plant response rating, Soybean: 95
[10]; 16 g ai/ha, 0 to 100 scale
  Plant response rating, Velvetleaf: 75
[10]; [14]
  Plant response rating, Velvetleaf: 100
[10]; [15]
  Plant response rating, Velvetleaf: 100
[11]; 16 g ai/ha, 0 to 100 scale
  Plant response rating, Wheat: 0
[11]; [14]
  Plant response rating, Wheat: 0
[11]; [15]
  Plant response rating, Wheat: 5
Wild oat (Avena fatua); 16 g ai/ha, 0 to 100 scale
  Plant response rating, Oat, Wild: 0
Wild oat (Avena fatua); [14]
  Plant response rating, Oat, Wild: 0
Wild oat (Avena fatua); [15]
  Plant response rating, Oat, Wild: 85
[12]; 16 g ai/ha, 0 to 100 scale
  Plant response rating, Cupgrass, Woolly: 75
[12]; [14]
  Plant response rating, Cupgrass, Woolly: 85
[12]; [15]
  Plant response rating, Cupgrass, Woolly: 100
[13]; 16 g ai/ha, 0 to 100 scale
  Plant response rating, Nutsedge, Yellow: 0
[13]; [14]
  Plant response rating, Nutsedge, Yellow: 0
[13]; [15]
  Plant response rating, Nutsedge, Yellow: 55
